# In patent publication US12344583B2, “Solid psilocin salts” (LOBE SCIENCES LTD., priority 2022, dated 2025):
# Values joined by “and” are separate entries in the source; they are usually repeats but may differ in a detail not shown here. Identical values can stand only once. “Also recorded” adds a separate entry of the source.
# How the values were obtained:
# healthy subjects = assay: Phase one open-label single-dose study of psilocin mucate capsules: MMSE and mood assessment by psychiatrist; conditions: single oral capsule 4.05 mg psilocin mucate (equivalent to 2 mg psilocin)
# [1] = Stability studies on psilocin mucate capsule (appearance, HPLC assay and impurities, TM-022-0392); type: physicochemical
# Experimental: Additional stability studies were performed on the solid psilocin form psilocin mucate (also known as psilocin mucic acid salt or conjugate or psilocin galactaric acid salt or conjugate) capsule.
# Appearance was evaluated by viewing of the sample on a watchglass over a black and white background.
# Assay conditions for Test/Method TM-022-0392 assessing stability and impurities were as follows: • Mobile phase: MPA: 945 mL water, 5 mL H3PO4, pH to 5.7 with • NaOH; MPB: Acetonitrile • Diluent: 80:20 Water: MeOH • Standard: 0.4 mg/mL Psilocin Mucic RS in Diluent • Sample: 0.4 mg/mL Psilocin Mucic API in Diluent HPLC Conditions are depicted in Table 3.
# Calculations were against a bracketing external standard.
# Identity of psilocin mucate was verified by ultraviolet (UV) assessment, wherein the UV spectrum of the main peak in the standard matched the UV spectrum of the main peak in the sample and by retention time wherein the retention time ratio was 0.98-1.02.
smiles,measurement,setting,value
CN(C)CCc1c[nH]c2cccc(O)c12.O=C(O)[C@@H](O)[C@H](O)[C@H](O)[C@@H](O)C(=O)O [psilocin mucate],FEELING STATUS,healthy subjects; one statement per subject,"Less anxious, better mood, increase their appetite; also recorded: Feel little beet happier, better energy; also recorded: Feel calm, less thoughts, happier mood; also recorded: Euphoric, better mood, it helps with life stress; also recorded: Euphories, better mood, sleepy, feel time is; also recorded: Sleepy, better thoughts, less worried in general; also recorded: Did not feel change in mood but feeling cold; also recorded: More relaxed, want to drink sweet tea, better; also recorded: Better mood, feels hyper sexual"
same,MMSE,"healthy subjects; one value per subject, below 25 expected for a hallucinogenic substance",29 (2×) and 30 (3×) and 28 (3×) and 27 (2×)
same,Total Impurities,[1]; 7 Months,<0.05%
same,"Impurities TM-22-0392, individual impurities","[1]; 7 Months, all impurities, area percent",All <0.05%
same,Assay TM-22-0392 (% Label Claim),"[1]; 7 Months, specification 90.0-110.0%","101,7%"
same,Total Impurities,[1]; Initial,0.08%
same,"Impurities TM-22-0392, individual impurities","[1]; Initial, impurity at RRT I.12, area percent",RRT I.12/0.08%
